For series [1], the system named is HT-29. As to the kind of experiment: Cytotoxicity against human HT-29 cells incubated for 24 hrs by MTS method. Conditions: HT-29, 24 h. It is filed as functional, cell-based.
For series [2], the system named is Bel-7402. As to the kind of experiment: Cytotoxicity against human Bel-7402 cells incubated for 24 hrs by MTS method. It is filed as functional, cell-based. Conditions: Bel-7402, 24 h.
The nature of series [3]: Cytotoxicity against human MDA-Panc-28 cells incubated for 24 hrs by MTS method. It is filed as functional, cell-based. The following applies: MDA-Panc-28, 24 h.
The test system of series [4] is HT-29. In words: Cytotoxicity against human HT-29 cells incubated for 72 hrs by sulforhodamine B assay. It is filed as functional, cell-based. Conditions: HT-29, 72 h.
Series [5] concerns Jurkat. As to the kind of experiment: Cytotoxicity against human Jurkat cells incubated for 72 hrs by ATPlite assay. It is filed as functional, cell-based.
Series [6] relates to HL-60. As to the kind of experiment: Cytotoxicity against human HL-60 cells incubated for 72 hrs by ATPlite assay. It is filed as functional, cell-based. The following applies: HL-60, 72 h. On the technique in general: ATP-based viability assays read luminescence as a measure of living cells.
Series [7] concerns WM 266-4. As to the kind of experiment: Cytotoxicity against human WM 266-4 cells incubated for 72 hrs by ATPlite assay. It is filed as functional, cell-based. Conditions: WM 266-4, 72 h.
Series [8] concerns L1210. As to the kind of experiment: Cytotoxicity against mouse L1210 cells. It is filed as functional, cell-based.
Series [9] deals with LNCaP. In words: Cytotoxicity against human LNCaP cells. It is filed as functional, cell-based.
A short description of series [10]: Cytotoxicity against human Lu-1 cells. It is filed as functional, cell-based. Conditions: Lu1.
The test system of series [11] is HCT-116. As to the kind of experiment: Cytotoxicity against human HCT116 cells incubated for 72 hrs by ATPlite assay. It is filed as functional, cell-based. The following applies: HCT-116, 72 h.
For series [12], the system named is CCRF-CEM. As to the kind of experiment: Cytotoxicity against human CEM cells incubated for 72 hrs by MTT assay. It is filed as functional, cell-based.
In series [13] the test system is SW626. As to the kind of experiment: Cytotoxicity against human SW626 cells. It is filed as functional, cell-based.
Series [14] has as its system MCF7. As to the kind of experiment: Cytotoxicity against human MCF7 cells. It is filed as functional, cell-based.
Series [15] deals with HeLa. As to the kind of experiment: Cytotoxicity against human HeLa cells. It is filed as functional, cell-based.
Series [16] has as its system NCI-H446. In words: Cytotoxicity against human NCI-H446 cells. It is filed as functional, cell-based.
The subject of series [17] is P388. As to the kind of experiment: Cytotoxicity against mouse P388 cells incubated for 48 hrs by MTT assay. It is filed as functional, cell-based. The following applies: P388, 48 h. A general note: Tetrazolium assays rely on reduction of a dye to a coloured formazan, in cell work by metabolically active cells.
Series [18] deals with A549. In words: Antiproliferative activity against human A549 cells incubated for 48 hrs by MTT assay. It is filed as functional, cell-based. The following applies: A549, 48 h.
Series [19] relates to NCI-H1975. In words: Antiproliferative activity against human NCI-H1975 cells incubated for 48 hrs by MTT assay. It is filed as functional, cell-based. The following applies: NCI-H1975, 48 h.
Series [20] concerns DU-145. In words: Antiproliferative activity against human DU-145 cells incubated for 72 hrs by CCK8 assay. It is filed as functional, cell-based. Conditions: DU-145, 72 h.
The test system of series [21] is Raji. As to the kind of experiment: Antiproliferative activity against human Raji cells incubated for 3 to 6 days by alamar blue assay. It is filed as functional, cell-based. In general terms: The colour change of resazurin is a common sign of viable cells or microbes.
Series [22] deals with RKO. As to the kind of experiment: Cytotoxicity against human RKO cells incubated for 72 hrs by Cell Titer-Glo luminescence assay. It is filed as functional, cell-based.
The test system of series [23] is MGC-803. In words: Cytotoxicity against human MGC-803 cells incubated for 72 hrs by Alamar Blue method. It is filed as functional, cell-based. The following applies: MGC-803, 72 h.
Series [24] concerns BXPC-3. As to the kind of experiment: Antiproliferative activity against human BXPC-3 incubated for 72 hrs by alamar blue assay. It is filed as functional, cell-based. Conditions: BXPC-3, 72 h.
For series [25], the system named is SW480. In words: Cytotoxicity against human SW480 cells incubated for 72 hrs by Cell Titer-Glo luminescence assay. It is filed as functional, cell-based. The following applies: SW480, 72 h.
The test system of series [26] is PANC-1. As to the kind of experiment: Cytotoxicity against human Panc-1 cells incubated for 72 hrs by alamar blue assay. Conditions: PANC-1, 72 h. It is filed as functional, cell-based.
For series [27], the system named is SGC-7901. As to the kind of experiment: Cytotoxicity against human SGC-7901 cells incubated for 72 hrs by Alamar Blue method. It is filed as functional, cell-based. Conditions: SGC-7901, 72 h.
The nature of series [28]: Antiproliferative activity against human PaTu8988 incubated for 72 hrs by alamar blue assay. It is filed as functional. The following applies: PaTu8988, 72 h.
Series [29] deals with HGC-27. In words: Cytotoxicity against human HGC-27 cells incubated for 72 hrs by Alamar Blue method. It is filed as functional, cell-based. Conditions: HGC-27, 72 h.
Series [30] deals with PC-3. In words: Antiproliferative activity against human PC-3 cells incubated for 72 hrs by CCK8 assay. It is filed as functional, cell-based. Conditions: PC-3, 72 h.
The subject of series [31] is ASPC1. In words: Antiproliferative activity against human ASPC1 incubated for 72 hrs by alamar blue assay. It is filed as functional, cell-based. The following applies: ASPC1, 72 h.
In series [32] the test system is NCI-N87. In words: Cytotoxicity against human NCI-N87 cells incubated for 72 hrs by Alamar Blue method. It is filed as functional, cell-based. Conditions: NCI-N87, 72 h.
Series [33] has as its system LNCaP. In words: Antiproliferative activity against human LNCaP cells incubated for 72 hrs by CCK8 assay. It is filed as functional, cell-based.
Series [34] relates to AGS. As to the kind of experiment: Cytotoxicity against human AGS cells incubated for 72 hrs by Alamar Blue method. It is filed as functional, cell-based.
The test system of series [35] is CFPAC-1. In words: Antiproliferative activity against human CFPAC-1 incubated for 72 hrs by alamar blue assay. It is filed as functional, cell-based. Conditions: CFPAC-1, 72 h.
In series [36] the test system is Jurkat. In words: Antiproliferative activity against human Jurkat cells incubated for 3 to 6 days by alamar blue assay. It is filed as functional, cell-based.
A short description of series [37]: Antitumor activity against human PaTu8988 cells xenografted in NOD/SCID mouse assessed as tumor growth inhibition at 5 mg/kg, ip administered daily for 60 days by digital caliper method relative to control. It is filed as functional. Conditions: 1440 h, time 60 day, read-out: TGI.
Series [38] concerns SW1990. In words: Antiproliferative activity against human SW1990 incubated for 72 hrs by alamar blue assay. It is filed as functional, cell-based. The following applies: SW1990, 72 h.
Series [39] has as its system MCF7. In words: Antiproliferative activity against human MCF7 cells incubated for 24 hrs by MTT assay. It is filed as functional, cell-based. The following applies: MCF7, 24 h.
The test system of series [40] is MDA-MB-231. As to the kind of experiment: Antiproliferative activity against human MDA-MB-231 cells incubated for 24 hrs by MTT assay. It is filed as functional, cell-based. The following applies: MDA-MB-231, 24 h.
A short description of series [41]: Cmax in Sprague-Dawley rat at 10 mg/kg, po measured after 0.25 to 72 hrs by LC/QTOF/MS method. It is filed as ADME, organism-based. Also noted: route oral, time upper 72 hrs, time lower 0.25 hrs, dose 10 mg/kg. The following applies: in vivo.
Series [42] is described as follows: Cmax in Sprague-Dawley rat at 10 mg/kg, iv measured after 0.08 to 72 hrs by LC/QTOF/MS method. It is filed as ADME, organism-based. Also noted: route intravenous, dose 10 mg/kg, time upper 72 hrs, time lower 0.08 hrs. Conditions: in vivo.

pEC50, pIC50: −log10 of the molar value. Where only a bound is given, the exact number is not on record here.

What is called pIC50 is the negative decadic logarithm of the IC50, by convention in mol/L. A high value points to a small IC50. Usually pEC50 stands for the EC50 on a negative log10 scale, so that one unit is a factor of ten. The low end stands for a high EC50, the high end for a low EC50. A word on the EC90: it is the point of the concentration-response curve where the effect stands at 90%. Usually Cmax stands for the maximum level reached in the sampled fluid or tissue.

`CO[C@@]12OC(=O)C(CO)=C1[C@H]1O[C@]13CC[C@@H]1C(C)(C)CCC[C@@]1(C)[C@@H]3[C@H]2O`: the pIC50 in [1], in series [2] and in [3] was less than 4.30 throughout.

In [4], `COC/C(C)=C/[C@@H]1OC(=O)[C@H]([C@@H]2CC[C@]34C[C@]23C=C[C@@H]2[C@@]3(C)CC=C5C[C@@H](c6ccc7c(c6)OCO7)OC[C@]5(C)[C@@H]3C[C@@H](O)[C@]24C)[C@H]1O` gave a pIC50 of less than 5.00.

With `C/C(=C\[C@H]1C[C@@H]([C@@H]2CC[C@]34C[C@]23C=C[C@@H]2[C@@]3(C)CC=C5C[C@@H](c6ccccc6)OC[C@]5(C)[C@@H]3C[C@@H](O)[C@]24C)C(=O)O1)CO` [DICHAPETALIN A], the pIC50 in [5] was 5.52; in series [6], 4.96; in [9], 4.92; in series [10], 5.15; in series [12], 5.02; in series [13], 6.47. Also, the figures for the pEC50 in [7] and in [11] were 4.77 and 6.60, respectively. The same compound came in with an EC90 in series [8] of less than 0.17 nM.

In the case of `C[C@@]12[C@H](O)C=C[C@]3(C)C(=O)O[C@H](C=C4COC(=O)C[C@H]41)[C@H]23`, the pIC50 is 4.96 in series [14], 5.00 in series [15] and 4.80 in series [16].

`CC(C)[C@H]1OC(=O)C=C2[C@@]13O[C@@H]3[C@H]1OC(=O)[C@@]3(C)[C@@H](O)CC[C@@]2(C)[C@@H]13`: the pIC50 in series [17] is 6.14; in series [18] it was 5.28; in [19], 5.44.

In the case of `CC(C)[C@]12O[C@H]1[C@@H]1O[C@@]13[C@@]1(C)CCC4=C(COC4=O)[C@@H]1C[C@@H]1O[C@@]13C2=O` [TRIPTONIDE], the pIC50 in series [20] was 8.00; in series [21], 8.40; in [22], 7.82; in [23] it was more than 7.70; in [24] it was more than 7.70; in series [25], 7.77. The pIC50 in series [26] is more than 7.70; in series [27], more than 7.70; in series [28], more than 7.70; in series [29], more than 7.70; in [30], 7.92; in series [31] it was more than 7.70. For the same compound, the pIC50 in [32] is more than 7.70; in [33], 8.00; in series [34] it was more than 7.70; in series [35], more than 7.70; in series [36], 8.40; in series [38], more than 7.70. The inhibition in vivo at 5 mg/kg in [37] was determined as 97.5%.

Take `COC(=O)C[C@H]1[C@]2(C)C3=C(C)[C@H](c4ccoc4)C[C@H]3O[C@@H]2[C@@H]2OC(=O)[C@]3(C)C=CC(=O)[C@@]1(C)[C@@H]23` [NIMBOLIDE]: the pIC50 in series [39] is 5.40; in series [40] it was 5.22. For the same compound, the figures for the Cmax in series [41] and in series [42] were 15.3 ng/mL and 5560 ng/mL, respectively.
